Consider four molecules from patent publication US20160129003A1, “Pharmaceutical Combinations” (Novartis AG, priority 2013, published 2016).

Molecules are shown by their SMILES. Like-named read-outs stand apart in the source and are kept apart here.

For assay [1], the system named is primary human lung cancer LUF1656 xenograft. The class given is in vivo. Conditions: PO, QD × 21 Days; for T/C (%): Day 21; for Tumor Size (mm^3) at Day 21 of Treatment: Mean ± SEM. The method, then: The in-vivo antitumor activity of the phosphatidylinositol-3-kinase inhibitor compound COMPOUND B in combination with either the anaplastic lymphoma kinase inhibitor COMPOUND D or crizotinib is evaluated in the treatment of subcutaneous primary human lung cancer LUF1656 xenograft models in nu/nu mice.
Experiments are performed with female Mus Musculus nu/nu mice (Vital River Laboratories, China) approximately 7-8 weeks of age and 19-24 g body weight at treatment start. All animals are housed in laminar flow rooms at constant temperature (approximately 20-26° C.) and humidity (approximately 40-70%) with 4 or 5 animals in each cage. All animals have free access to irradiation sterilized dry granule food and sterile drinking water. Animals are divided into groups of 10 animals per group.
COMPOUND B in form of its monohydrochloride salt (Novartis) is obtained as a powder and stored at −20° C. 323.3 mg of COMPOUND B monohydrochoride (equivalent to 294 mg of free base) is formulated in 21 ml of 1% Tween 80 and 21 ml 1% methylcellulose (M-0512). COMPOUND B is first sonicated in the 1% Tween 80 and then mixed with the 1% methylcellulose and then stirred for 1 hour and sonicated for 5 minutes to formulate a solution having a COMPOUND B concentration of 7 mg/ml. For this experiment, the COMPOUND B monohydrochloride salt is referred to as “COMPOUND B”.
(§1) COMPOUND D in the form of its salt (Novartis) is obtained as a powder and stored at −20° C. 388 mg of COMPOUND D salt (equivalents to 330 mg of free base) is suspended in 33 ml of 0.5% methylcellulose (M-0512) and 0.5% Tween, is sonicated and then is vortexed to formulate a solution having a COMPOUND D concentration of 10 mg/ml. Additionally, 11 ml of this 10 mg/ml concentration solution is diluted with 11 ml 0.5% methylcellulose and 0.5% Tween 80 and vortexted to form a second solution having a COMPOUND D concentration of 5 mg/ml. For this experiment, the COMPOUND D salt is referred to as “COMPOUND D”.
Crizotinib is obtained as a powder and stored at −20° C. 220 mg of crizotinib is suspended in 22 ml 0.5% methylcellulose (MC) and sonicated to form a solution having a crizotinib concentration of 10 mg/ml. This solution can be stored at 4° C. for 1 week and protected from light.
Tumor fragments from stock mice inoculated with LUF1656 primary human lung cancer cells (Crown Bio, China) are harvested and used for inoculation into the nu/nu mice. Each mouse is inoculated subcutaneously at the right flank with one tumor fragment (2-3 mm in diameter) for tumor development. The treatments are started when mean tumor size reach approximately 135 mm^3. Animals are routinely monitored and body weight measured twice weekly. Death and observed clinical signs are recorded on the basis of the number of animals within each subset. Animals observed to be in a continuing deteriorating condition or for which the tumor size of individual animal exceeds 1/10 of the body weight are euthanized prior to death or before comatose.
Tumor size is measured twice weekly in two dimensions using a caliper and the volume is expressed in mm^3 using the formula: V=0.5 a×b^2, wherein a and b are the long and short diameters of the tumor respectively. The tumor size is then used for calculation of both T-C and T/C values. T-C is calculated with T as the time (days) required for the mean tumor size of the treatment group to reach a predetermined size (e.g., 400 mm^3) and C is the time (in days) for the mean tumor size of the control group to reach the same size. T/C value (in percent is an indication of the anti-tumor effectiveness; T and C are the mean volume of the treated and control groups, respectively, on a given day.
Summary statistics are provided for the tumor volume of each group at each time point.

The subject of assay [2] is primary human lung cancer LU1656 xenograft. The assay is described as follows: In-vivo antitumor activity, subcutaneous LU1656 xenograft, first and second phase (Example 3). As to conditions: for T-C (days) at 500 mm^3 / T/C (%) / Tumor Size (mm^3) at Day 50 Post Tumor Implantation / Tumor Size (mm^3) at Day 61 Post Tumor Implantation: p.o.; for Tumor Size (mm^3) at Day 50 Post Tumor Implantation / Tumor Size (mm^3) at Day 61 Post Tumor Implantation: Mean ± SEM. The method, then:
The in-vivo antitumor activity […] of the phosphatidylinositol-3-kinase inhibitor compound COMPOUND B in combination with either the anaplastic lymphoma kinase inhibitor COMPOUND D or crizotinib and (b) of the phosphatidylinositol-3-kinase inhibitor compound COMPOUND C in combination with either the anaplastic lymphoma kinase inhibitor COMPOUND D or crizotinib is evaluated in the treatment of subcutaneous primary human lung cancer LU1656 xenograft models in nu/nu mice.
Experiments are performed with female Mus Musculus nu/nu mice (Vital River Laboratories, China) approximately 7-8 weeks of age and 19-24 g body weight at treatment start. All animals are housed in laminar flow rooms at constant temperature (approximately 20-26° C.) and humidity (approximately 40-70%) with 4 or 5 animals in each cage. All animals have free access to irradiation sterilized dry granule food and sterile drinking water.
Animals are divided into 9 groups.
COMPOUND B in form of its monohydrochloride salt (Novartis) is obtained as a powder and stored at −20° C. 99.1 mg of COMPOUND B monohydrochoride (equivalent to 91 mg of free base) is formulated in 6.5 ml of 1% Tween 80 and 6.5 ml 1% methylcellulose (M-0512). COMPOUND B is first sonicated in the 1% Tween 80 and then mixed with the 1% methylcellulose and then stirred for 1 hour and sonicated for 5 minutes to formulate a solution having a COMPOUND B concentration of 7 mg/ml. For this experiment, the COMPOUND B monohydrochloride salt is referred to as “COMPOUND B”.
COMPOUND C is obtained as a powder and stored at 4° C. A vehicle is formulated by dissolving 2 g of CMC sodium salt powder low density in 198 ml of sterile water, mixing using a magnetic beater and heating (about 50° C.), adding 1 ml Tween 80, adjusting the pH to 7.6 using NaOh/HCl, and completing the volume to 200 ml. 84 mg of COMPOUND C is suspended in 3.5 ml of this vehicle and stirred/vortexed until homogenous; another 3.5 ml of this vehicle is added and homogenized; and another 7 ml of this vehicle is added and homogenized. To reduce particle size, this solution is sonicated for 1 hour using a sonication probe while cooling in an ice bath. The solution is having a COMPOUND C concentration of 6 mg/ml.
as §1
COMPOUND C is obtained as a powder and stored at 4° C. A vehicle is formulated by dissolving 2 g of CMC sodium salt powder low density in 198 ml of sterile water, mixing using a magnetic beater and heating (about 50° C.), adding 1 ml Tween 80, adjusting the pH to 7.6 using NaOh/HCl, and completing the volume to 200 ml.

The mark [3] stands for this setting: first phase, Group 3: COMPOUND D 50 mg/kg, QD × 40.
Where [4] appears, read: second phase, Group 8: COMPOUND D 25 mg/kg, QD × 40.
The mark [5] stands for this setting: first phase, Group 4: COMPOUND C 30 mg/kg, QD × 35.
Setting [6] is: second phase, Group 9: Crizotinib 50 mg/kg, QD × 40.

On to `Nc1cc(C(F)(F)F)c(-c2cc(N3CCOCC3)nc(N3CCOCC3)n2)cn1` [COMPOUND B, 5-(2,6-di-morpholin-4-yl-pyrimidin-4-yl)-4-trifluoromethyl-pyridin-2-ylamine], for which, in assay [1] (Group 3: COMPOUND B 35 mg/kg), the “T/C (%)” value was determined as 30.1% and the “Tumor Size (mm^3) at Day 21 of Treatment” value is 365.4 mm^3.

For the molecule `Cc1cc(Nc2ncc(Cl)c(Nc3ccccc3S(=O)(=O)C(C)C)n2)c(OC(C)C)cc1C1CCNCC1` [COMPOUND D, 5-Chloro-N2-(2-isopropoxy-5-methyl-4-piperidin-4-yl-phenyl)-N4-[2-(propane-2-sulfonyl)-phenyl]-pyrimidine-2,4-diamine], the “T/C (%)” value in assay [1] (Group 7: COMPOUND D 25 mg/kg) came to 16.1%; in assay [1] (Group 8: COMPOUND D 50 mg/kg), 17.6%; in assay [2] (first phase, Group 3: COMPOUND D 50 mg/kg, QD × 40, Day 50) it was 10.4%; in assay [2] (second phase, Group 8: COMPOUND D 25 mg/kg, QD × 40, Day 61), 14.6%. In addition, the “Tumor Size (mm^3) at Day 21 of Treatment” value in assay [1] (Group 7: COMPOUND D 25 mg/kg) came to 194.9 mm^3; in assay [1] (Group 8: COMPOUND D 50 mg/kg), 213.6 mm^3. Also, the “antitumor activity against the LU1656 xenograft model (summary)” value in assay [2] (COMPOUND D at 25 mg/kg as a single agent) and in assay [2] (COMPOUND D at 50 mg/kg as a single agent) was “significant antitumor activity” throughout. In addition, the “T-C (days) at 500 mm^3” value in assay [2] (setting [3]) is reported as 40 days; in assay [2] (setting [4]), 34 days. For the same molecule, the “Tumor Size (mm^3) at Day 50 Post Tumor Implantation” value in assay [2] (setting [3]) is listed as 218.2 mm^3. The “Tumor Size (mm^3) at Day 61 Post Tumor Implantation” value in assay [2] (setting [4]) was 307.4 mm^3. Moreover, the “antitumor activity compared to Crizotinib (50 mg/kg) monotherapy” value in assay [2] (second phase, COMPOUND D 25 mg/kg monotherapy, Day 64 to Day 82, p<0.05 or p<0.01 at different days) was “significantly improved”.

As to `Cc1nc(NC(=O)N2CCC[C@H]2C(N)=O)sc1-c1ccnc(C(C)(C)C(F)(F)F)c1` [COMPOUND C, (S)-Pyrrolidine-1,2-dicarboxylic acid 2-amide 1-({4-methyl-5-[2-(2,2,2-trifluoro-1,1-dimethyl-ethyl)-pyridin-4-yl]-thiazol-2-yl}-amide)], the “antitumor activity against the LU1656 xenograft model (summary)” value in assay [2] (COMPOUND C at 30 mg/kg as a single agent) is “significant antitumor activity”. Also, in assay [2] (setting [5]), the “T-C (days) at 500 mm^3” value came out at 11 days and the “Tumor Size (mm^3) at Day 50 Post Tumor Implantation” value was 752.5 mm^3. Besides, the “T/C (%)” value in assay [2] (first phase, Group 4: COMPOUND C 30 mg/kg, QD × 35, Day 50) is given as 36.0%.

As for `C[C@@H](Oc1cc(-c2cnn(C3CCNCC3)c2)cnc1N)c1c(Cl)ccc(F)c1Cl` [Crizotinib, reference compound], in assay [1] (Group 6: Crizotinib 50 mg/kg), the “T-C (days) at 400 mm^3” value is reported as 7 days and the “T/C (%)” value is 37.1%. Moreover, in assay [1] (Group 6: Crizotinib 50 mg/kg, from 9 animals' data (one outlier removed)), the “Tumor Size (mm^3) at Day 21 of Treatment” value is 450.8 ± mm^3. In addition, in assay [2] (setting [6]), the “T-C (days) at 500 mm^3” value was determined as 14 days and the “Tumor Size (mm^3) at Day 61 Post Tumor Implantation” value came out at 520.4 mm^3. Also, in assay [2] (second phase, Group 9: Crizotinib 50 mg/kg, QD × 40, Day 61), the “T/C (%)” value is recorded as 24.7%. In assay [2] (second phase, Crizotinib 50 mg/kg, PO, QD×40, Day 47 to Day 61 after tumor implantation, p<0.01 or p<0.001 at different days), the “antitumor activity compared with vehicle control” value is reported as “significant antitumor activity”.
